Target: T1, NLRP3 inflammasome (Homo sapiens, UniProt Q96P20)
T1 construct: Monocytes were then isolated from the PBMCs using a human pan-monocyte isolation kit; endogenous in cells; host or cells: primary human monocytes isolated from PBMCs of human blood
Test: Inhibitory activity against NLRP3 inflammasome in human monocytes (IL-1b ELISA)
Type: cell-based
Conditions: human monocytes from PBMCs; compound 0.5 h, LPS 100 ng/mL 3.5 h, ATP 5 mM 45 min; IL-1b in supernatant by ELISA; (n = 2) cells are means of n tests; read-out: IL-1β inhibition (EC50)/nM
Description: Assays for Inhibitory Activity Against NLRP3 Inflammasome in Human Monocytes
Day 1: PBMCs were separated from human blood by density gradient centrifugation and washed twice with PBS containing 2% FBS (centrifuged at 300 g for 8 min). Monocytes were then isolated from the PBMCs using a human pan-monocyte isolation kit and an LS column. The cells were stained with CD14-FITC at 4° C. for 30 min, and FACS was run on BD FACS Verse to analyze the purity of the pan-monocytes. The cells were counted, and the cell density was adjusted to 2.5×10^5 cells/mL. The cells were seeded into a 96-well plate at 2.5×10^4 monocytes/[…] suspension/well. The plate was incubated overnight at 37° C. in 5% CO2.
Day 2: Test compounds were pre-titrated so that all titration points, including the DMSO control well, contained 0.1% DMSO. […] At the end of the 3.5 hours' incubation, the cells were stimulated (by adding […] of 40 mM ATP (the final concentration would be 5 mM) to treat the cells for 45 min). […] of supernatant was transferred to a new plate and stored at […]
Day 3: The supernatant solution was 20-fold diluted for human monocyte IL-1b ELISA according to the manufacturer's instructions.
Days 3-4: ELISA experiment • 1) Day 3: A capture antibody (diluted with coating buffer) was added to the plate at […]. The plate was sealed and incubated overnight at 4° C. • 2) Day 4: The liquids in the wells were pipetted off, and the plate was washed 3 times with wash buffer, 300 μL/≥each time. After the last wash, the plate was inverted and blotted dry with absorbent paper to remove any residual buffer.
3) A test dilution was added to the plate at ≥200 μL/well. The plate was incubated at room temperature for 1 h. • 4) The plate was blotted dry/washed as in step 2. • 5) Standard and sample dilutions were prepared with the test dilution. • 6) Each standard, sample and control was added to a corresponding well at […]. The plate was sealed and incubated at room temperature for 2 h. • 7) The plate was blotted dry/washed as in step 2, except that it was washed 5 times. • 8) The assay antibody was diluted with the test dilution and added to wells at […]/well. • 9) The plate was sealed and incubated at room temperature for 1 h. • 10) The plate was blotted dry/washed as in step 2, except that it was washed 5 times. • 11) The enzyme reagent was diluted with the test dilution and added to wells at […]/well. The plate was sealed and incubated at room temperature for 30 min. • 12) The plate was blotted dry/washed, and the step of soaking for 30 s-1 min was used. The plate was washed 7 times in total. • 13) A substrate solution was added at […]/well. The plate (without plate sealant) was incubated at room temperature in the dark for 30 min. • 14) A stop solution was added at […]. • 15) The absorbance at 450 nm was read using the instrument Envision within 30 min of stopping the reaction. If a wavelength correction was available, the absorbance at 570 nm would be subtracted from the absorbance at 450 nm.

T1 sequence (Q96P20 whole entry): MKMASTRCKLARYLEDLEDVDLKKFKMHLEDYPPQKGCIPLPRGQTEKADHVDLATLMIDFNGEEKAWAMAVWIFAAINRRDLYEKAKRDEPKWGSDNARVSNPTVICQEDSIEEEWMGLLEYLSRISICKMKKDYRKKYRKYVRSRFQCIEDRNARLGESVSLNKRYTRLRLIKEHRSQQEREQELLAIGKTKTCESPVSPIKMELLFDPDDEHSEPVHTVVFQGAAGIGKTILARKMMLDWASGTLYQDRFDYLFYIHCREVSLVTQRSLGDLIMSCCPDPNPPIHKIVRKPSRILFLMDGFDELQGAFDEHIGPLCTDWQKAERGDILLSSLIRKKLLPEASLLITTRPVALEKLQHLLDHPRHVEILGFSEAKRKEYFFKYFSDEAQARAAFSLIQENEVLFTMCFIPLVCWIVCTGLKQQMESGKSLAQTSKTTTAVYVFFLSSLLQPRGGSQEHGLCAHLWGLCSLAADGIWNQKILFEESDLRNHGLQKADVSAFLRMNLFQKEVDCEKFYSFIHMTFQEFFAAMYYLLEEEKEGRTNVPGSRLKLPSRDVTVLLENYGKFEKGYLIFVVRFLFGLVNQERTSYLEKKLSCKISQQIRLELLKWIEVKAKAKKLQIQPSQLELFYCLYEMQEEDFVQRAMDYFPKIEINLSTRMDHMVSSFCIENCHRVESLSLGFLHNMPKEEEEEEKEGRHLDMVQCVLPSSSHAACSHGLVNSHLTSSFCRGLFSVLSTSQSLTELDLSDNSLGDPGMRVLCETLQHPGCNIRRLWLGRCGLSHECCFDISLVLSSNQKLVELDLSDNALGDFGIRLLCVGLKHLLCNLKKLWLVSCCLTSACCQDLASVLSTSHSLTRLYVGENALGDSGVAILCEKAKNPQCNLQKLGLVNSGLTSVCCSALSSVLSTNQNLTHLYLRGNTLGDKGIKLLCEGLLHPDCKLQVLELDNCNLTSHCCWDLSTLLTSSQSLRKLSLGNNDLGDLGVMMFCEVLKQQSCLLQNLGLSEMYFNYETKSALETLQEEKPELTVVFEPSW

Structure (SMILES) | EC50 [nM]
Cc1cc(N[C@@H]2CCCN(C)C2)nnc1-c1ccc(SC(F)(F)F)cc1O (racemic) [Compound 11, rac-(R2-(4-Methyl-6-((1-methylpiperidin-3-yl)amino)pyridazin-3-yl)-5-( (trifluoromethyl)thio)phenol] | 2.47
OCCN1CCC[C@@H](Nc2nnc(-c3ccc(C(F)(F)F)cc3O)c3c2CCCC3)C1 (racemic) [Compound 19, rac-(R)-2-(4-(1-(2-Hydroxyethyl)piperidin-3-yl)amino)-5,6,7,8-tetrahydrophthalazin-1-yl)-5-(trifluoromethyl)phenol] | 4.99
CN1CCC[C@@H](Nc2nnc(-c3c(O)cccc3F)c3c2CCC3)C1 (racemic) [Compound 20, rac-3-Fluoro-2-(4-((R)-1-methylpiperidin-3-yl)amino)-6,7-dihydro-5H-cyclopenta[d]pyridazin-1-yl)phenol] | 1.23
OCCN1CCC[C@@H](Nc2nnc(-c3ccc(C(F)(F)F)cc3O)c3c2COC3)C1 (racemic) [Compound 32, rac-(R)-2-(4-(1-(2-Hydroxyethyl)piperidin-3-yl)amino)-5,7-dihydrofuro[3,4-d]pyridazin-1-yl)-5-(trifluoromethyl)phenol] | 0.71
Cc1cc(N[C@@H]2CCCN(CCO)C2)nnc1-c1ccc(C2CC2)cc1O (racemic) [Compound 36, rac-(R)-5-Cyclopropyl-2-(6-((1-(2-hydroxyethyl)piperidin-3-yl)amino)-4-methylpyridazin-3-yl)phenol] | 127
Cc1cc(N[C@@H]2CCCN(C)C2)nnc1-c1ccc2c(c1O)CCC2 [Compound 4, (R)-5-(4-Methyl-6-((1-methylpiperidin-3-yl)amino)pyridazin-3-yl)-2,3-dihydro-1H-inden-4-ol] | 1.91
Cc1cc(N[C@@H]2CCCN(C)C2)nnc1-c1cc2ccccc2cc1O [Compound 5, (R)-3-(4-Methyl-6-((1-methylpiperidin-3-yl)amino)pyridazin-3-yl)naphthalen-2-ol] | 41.8
Cc1cc(N[C@@H]2CCCN(C)C2)nnc1-c1cc2c(cc1O)CCC2 [Compound 6, (R)-6-(4-Methyl-6-((1-methylpiperidin-3-yl)amino)pyridazin-3-yl)-2,3-dihydro-1H-inden-5-ol] | 18.7
Cc1cc(N[C@@H]2CCCN(C)C2)nnc1-c1c(O)ccc2c1CCC2 [Compound 7] | 22.6
Cc1cc(N[C@@H]2CCCN(C)C2)nnc1-c1ccc(C(F)(F)F)cc1C(F)F [Compound 8, (R)-6-(2-(Difluoromethyl)-4-(trifluoromethyl)phenyl)-5-methyl-N-(1-methylpiperidin-3-yl)pyridazin-3-amine] | 4.31
Cc1cc(N[C@@H]2CCCN(C)C2)nnc1-c1cc2ccccc2cc1O [Compound 9, (R)-3-(4-Methyl-6-((1-methylpiperidin-3-yl)amino)pyridazin-3-yl)naphthalen-2-ol] | 41.8
CN1CCC[C@@H](Nc2ccc(-c3c(O)ccc4ccccc34)nn2)C1 [Compound 10, (R)-1-(6-((1-Methylpiperidin-3-yl)amino)pyridazin-3-yl)naphthalen-2-ol] | 48.2
Cc1cc(N[C@@H]2CCCN(C)C2)nnc1-c1ccncc1O [Compound 13, (R)-4-(4-Methyl-6-((1-methylpiperidin-3-yl)amino)pyridazin-3-yl)pyridin-3-ol] | 129
Cc1cc(N[C@H]2C[C@@](C)(O)C2)nnc1-c1ccc2c(c1O)CCC2 [Compound 14] | 2.38
C[C@]1(O)C[C@@H](Nc2nnc(-c3ccc(C(F)(F)F)cc3O)c3ccccc23)C1 [Compound 15] | 4.25
Cc1cc(N[C@@H]2CCCN(C)C2)nnc1-c1c(O)ccc2c1CCC2 [Compound 17] | 14.4
Cc1c(N[C@H]2C[C@@](C)(O)C2)nnc(-c2ccc3c(c2O)CCC3)c1C [Compound 21] | 4.62
C[C@]1(O)C[C@@H](Nc2nnc(-c3ccc(C(F)(F)F)cc3O)c3ncccc23)C1 [Compound 22] | 35.5
C[C@]1(O)C[C@@H](Nc2nnc(-c3ccc(C(F)(F)F)cc3O)c3cccnc23)C1 [Compound 23] | 2.51
C[C@]1(O)C[C@@H](Nc2nnc(-c3ccc(C(F)(F)F)cc3O)c3ccncc23)C1 [Compound 24] | 0.68

Structure (SMILES) | EC50 [nM]
C[C@]1(O)C[C@@H](Nc2nnc(-c3ccc(C(F)(F)F)cc3O)c3cnccc23)C1 [Compound 25] | 12.8
Cc1cc(N[C@@H]2CCCN(C)C2)nnc1-c1ccc2c(c1O)CCCC2 [Compound 27] | 4.75
Cc1cc(N[C@H]2C[C@@](C)(O)C2)nnc1-c1ccc(C2CC2)cc1O [Compound 28] | 17.4
Cc1c(N[C@H]2C[C@@](C)(O)C2)nnc(-c2ccc(C3CC3)cc2O)c1C [Compound 29] | 37.2
C[C@]1(O)C[C@@H](Nc2nnc(-c3ccc(C4CC4)cc3O)c3ccccc23)C1 [Compound 30] | 13.4
C[C@]1(O)C[C@@H](Nc2nnc(-c3ccc4c(c3O)CCC4)c3ccccc23)C1 [Compound 31] | 1.08
C[C@]1(O)C[C@@H](Nc2nnc(-c3c(O)cc(C(F)(F)F)cc3F)c3ccncc23)C1 [Compound 33] | 22
C[C@]1(O)C[C@@H](Nc2nnc(-c3c(O)cc(C(F)(F)F)cc3F)c3cnccc23)C1 [Compound 34] | 27
CN1CCC[C@@H](Nc2nnc(-c3c(O)cc(C(F)(F)F)cc3F)c3c2COC3)C1 [Compound 35] | 1.4
Cc1cc(N[C@H]2C[C@@](C)(O)C2)nnc1-c1cc(F)c2c(c1O)CCC2 [Compound 37] | 60
C[C@]1(O)C[C@@H](Nc2nnc(-c3ccc4c(c3O)CCC4)c3cccnc23)C1 [Compound 38] | 3
C[C@]1(O)C[C@@H](Nc2nnc(-c3ccc4c(c3O)CCC4)c3ccncc23)C1 [Compound 39] | 1
C[C@]1(O)C[C@@H](Nc2nnc(-c3ccc4c(c3O)CCC4)c3cnccc23)C1 [Compound 40] | 1.1
C[C@]1(O)C[C@@H](Nc2nnc(-c3ccc(C4CC4)cc3O)c3ccncc23)C1 [Compound 41] | 27
C[C@]1(O)C[C@@H](Nc2nnc(-c3ccc(C(F)(F)F)cc3O)c3c2COCC3)C1 [Compound 42] | 20
C[C@]1(O)C[C@@H](Nc2nnc(-c3ccc(C(F)(F)F)cc3O)c3c2CCOC3)C1 [Compound 43] | 20
C[C@]1(O)C[C@@H](Nc2nnc(-c3c(O)cc(C(F)(F)F)cc3F)c3ccccc23)C1 [Compound 44] | 24
Cc1cc(C(F)(F)F)cc(O)c1-c1nnc(N[C@H]2C[C@@](C)(O)C2)c2cnccc12 [Compound 45] | 4.9
Cc1cc(C(F)(F)F)cc(O)c1-c1nnc(N[C@H]2C[C@@](C)(O)C2)c2ccccc12 [Compound 46] | 10.1
Cc1cc(C(F)(F)F)cc(O)c1-c1nnc(N[C@@H]2CCCN(C)C2)c2c1COC2 [Compound 47] | 32.2

From patent US20240391895A1, “PYRIDAZINE-CONTAINING COMPOUND AND MEDICINAL USE THEREOF” (Tuojie Biotech (Shanghai) Co., Ltd., priority 2020, published 2024)
